# In patent US7015228B2, “4-amino-2-(2-pyridyl)pyrimidines as microbicidal active substances” (Ciba Specialty Chemicals Corporation, priority 2001, dated 2006):
# Tests used:
# Assay in all cases: Determination of the bactericidal activity (logarithmic reduction in organism count)
# Settings in all cases: contact for 30 minutes at a substance concentration of 120 μg/mL
# [1] = system: S. choleraesuis ATCC 10708; type: cell-based, Salmonella choleraesuis
# Description: (§1) Determination of the Bactericidal Activity of Selected Compounds
# (§2) Casein-soybean flour-peptone broth for preparation of pre-cultures of test bacteria
# (§3) Examples of Test Organisms:
# (§4) • Staphylococcus aureus ATCC 6538 • Escherichia coli ATCC 10536 • Salmonella choleraesuis ATCC 10708 Procedure:
# (§5) The test substances are dissolved in dimethyl sulfoxide (DMSO) and tested in a concentration of 120 μg/ml.
# (§6) Bacteria are incubated overnight in CASO broth and adjusted to an organism count of 1–5×10^5 CFU/ml using 0.85% sodium chloride solution.
# (§7) The test substances are pre-pipetted into microtitre plates in amounts of 8 μl per well.
# (§8) The adjusted test organism suspensions are added in amounts of 192 μl per well to the test substances and mixed. After defined contact times, the test batches are mixed, an aliquot is withdrawn and diluted in several steps in a dilution series of 1:10 in a suitable inactivation medium.
# The test plates are incubated for 24 hours at 37° C. […]
# (§9) One microtitre plate is used for each test organism.
# (§10) All the substances are tested in duplicate.
# [2] = system: S. aureus ATCC 6538; type: cell-based, Staphylococcus aureus
# Description: as §1, §2, §3, §4, §5, §6, §7, §8
# The test plates are incubated for 24 hours at 37° C.
# After incubation, the growth is determined on the basis of the turbidity of the test batches (optical density) at 620 nm in a microplate reader.
# as §9, §10
# [3] = system: E. coli NCTC 8196; type: cell-based, Escherichia coli
SMILES,"Logarithmic reduction in organism count, S. choleraesuis ATCC 10708 [1]","Logarithmic reduction in organism count, S. aureus ATCC 6538 [2]","Logarithmic reduction in organism count, E. coli NCTC 8196 [3]"
CCCCCCCCCCCCCCCCNc1cc(C(F)(F)F)nc(-c2ccccn2)n1 [Compound of formula 37],<1 log,1–2 log,<1 log
CC(C)c1cc(NCCCCCCCCCN)nc(-c2ccccn2)n1 [Compound of formula 42],<1 log,2 log,≦1 log
CC(C)c1cc(NCCCCCCCCCCCCN)nc(-c2ccccn2)n1 [Compound of formula 43],<1 log,3 log,<1 log
CCCCCCCNc1cc(C(C)C)nc(-c2ccccn2)n1 [Compound of formula 44],<1 log,1–2 log,<1 log
CCCCCCCCNc1cc(C(C)C)nc(-c2ccccn2)n1 [Compound of formula 45],<1 log,1–2 log,<1 log
CCCCCCCCCNc1cc(C(C)C)nc(-c2ccccn2)n1 [Compound of formula 46],<1 log,≦1 log,<1 log
CCCCCCCCCCNc1cc(C(C)C)nc(-c2ccccn2)n1 [Compound of formula 47],<1 log,1 log,<1 log
CCCCCCCCCCCCNc1cc(C(C)C)nc(-c2ccccn2)n1 [Compound of formula 48],<1 log,1 log,<1 log
CC(C)(C)c1cc(NCCCCCCCCCN)nc(-c2ccccn2)n1 [Compound of formula 54],≦1 log,2–3 log,≦1 log
CCCCCCCCCNc1cc(C(C)(C)C)nc(-c2ccccn2)n1 [Compound of formula 58],≦1 log,1 log,≦1 log
CCCCCCCCCCCCNc1cc(C(C)(C)C)nc(-c2ccccn2)n1 [Compound of formula 60],<1 log,<1 log,<1 log
CC(C)(C)c1cc(NCCc2ccccc2)nc(-c2ccccn2)n1 [Compound of formula 63],<1 log,<1 log,≦1 log
Cc1nc(-c2ccccn2)nc(NCCCCCCCCN)c1C(C)C [Compound of formula 65],<1 log,3 log,<1 log
